# Laboratory results: patent publication US6609014B1, “Use of PDT to inhibit intimal hyperplasia” (QLT Inc., priority 1999, dated 2003)
# “And” between values parts separate entries of the source, which are not always exact repeats. Equal entries are not always repeated.
# What was measured:
# Assay type in all cases: in vivo, Domestic swine
# [1] = system: endothelial lining of the vein lumen; test: von Willebrand factor immunostaining of AV fistula veins 48 hours after PDT; settings: low-dose PDT
# Description: In Example 4, the cell content of the vein wall was also examined using immunohistochemical techniques to detect SMCs (mouse anti-human ax-smooth muscle actin, clone 1A4 (Dako, Mississauga, Canada)), macrophages (mouse monoclonal anti-human monocyte/macrophage, clone MAC 387 (Serotec Inc.), T cells (Rabbit anti-human CD3 with Neo marker), and endothelial cells (rabbit polyclonal anti-human von Willebrand Factor (Dako, Mississauga, Canada)). SMCs were counted using the Optimas image analysis program and macrophages were counted manually using Image Pro Plus 3 (Media Cybernetics, Silver Spring, Md., USA).
# For the purposes of determining the early cellular effects of PDT on the vein, bilateral AV fistulae were created in six pigs and treated sides were given 0.15 mg BPD-MA (0.15 mg/2 mL) and 40 minutes OR light. After 48 hours these pigs were sacrificed and the fistulae were recovered and processed for histological evaluation. This is not enough time for IH to have developed, but the cellular activation which leads to IH may be detectable. […] Immunocytochemistry for the proliferating cell nuclear antigen (PCNA) was used to assess cell proliferation in the tissue (Table 3).
# Immunocytochemical staining for von Willebrand factor was performed to characterize the effects of PDT on the endothelial lining of the vein lumen. […]
# [2] = system: elastic lamina of the vein; test: Elastin (Verhoeff's elastic) staining of AV fistula veins after PDT; settings: 48 h and 1 month samples
# Procedure: (§1) Measurements and observations were made by morphometric analysis of cross-sections of fistulae stained with Verhoeff's elastic to assess the integrity of the vessel wall and also clearly demarcate the internal elastic lamina (IEL) for the measurement of IH. Areas within the lumen and those circumscribed by the internal elastic lamina (IEL) and the external elastic lamina (EEL) were measured directly using the Optimas (Optimas Corporation, Bothell, Wash., USA) program. The areas of the intima and the media were calculated by subtraction: intimal area equals the […], and medial area equals EEL area minus IEL area.
# [3] = system: intimal hyperplasia in the vein of AV fistulae between the carotid artery and the jugular vein; test: Three month efficacy study: PDT of bilateral AV fistulae, morphometric analysis; set-up: key to PDT-treated fistula thrombosed (T): T = thrombosed
# Procedure: A porous balloon catheter was introduced into the lumen of veins to deliver either 2 mL of BPD-MA (diluted in 5% dextrose in water) or 5% dextrose in water (control), at a delivery pressure of 2 mm Hg. Two minutes later, the photosensitizer (or dextrose) was rinsed out with heparinized saline before light exposure.
# The adventitia of the vein was exposed to the operating room (OR) lamp light for 40 minutes (a combination of incandescent bulbs and fluorescence tubes—approximately 1 J/cm^2).
# as §1
# A three month study was conducted with bilateral end-to side AV fistulae between the carotid artery and the jugular vein created in 11 pigs. One fistula was treated with 0.15 mg/2 mL BPD-MA and 1 J/cm^2 OR lamp light delivered over 40 min; the control fistula received 5% Dextrose and light. Animals were sacrificed 3 months after PDT. The fistulae were surgically excised and processed for histology and morphometric analysis as described previously. Only 27% of the PDT treated and 45% of the control fistulae were patent by 3 months. Occlusion appeared to be due to both early thrombosis, possibly related to the surgical procedure or late thrombosis due to extensive IH and lumen narrowing.
# There were three animals for which patent PDT-treated and control fistulae could be recovered. The percent of the lumen compromised by IH (% LCIH=[…]) was calculated for the first two complete blocks from the tip of the anastamosis for these samples.
# [4] = 0.15 mg VERTEPORFIN/2 mL, 1 J/cm^2 OR lamp light over 40 min, three months, individual pigs
# [5] = 0.15 mg VERTEPORFIN, three months, group mean
# [6] = 0.15 mg VERTEPORFIN, three months, group mean (n=3)
# [7] = 0.15 mg VERTEPORFIN, three months, individual pigs
# [8] = 0.15 mg VERTEPORFIN, three months, individual pigs (FIG. 9: percent medial hyperplasia)
# [9] = 0.15 mg/2 mL BPD-MA, three months
substance,measurement,setting,value
benzoporphyrin derivative monoacid ring A [BPD-MA],Damage to endothelial cell lining of treated veins,[1],did not appear to damage the endothelial cell lining
same,Damage to the elastic lamina due to PDT,[2],no sign of damage to the elastic lamina
same,"Percent Lumen Compromised by Intimal Hyperplasia, PDT, Block #2",[3]; [4],2% and 32.3% and 41.7% and 13.7% and 46.4%
same,"Percent Lumen Compromised by Intimal Hyperplasia, PDT, PDT (Block#1)",[3]; [4],3.1% and 30.2% and 17.3%
same,"Medial Hyperplasia, PDT, Block#1, Mean",[3]; [5],21.3
same,"Medial Hyperplasia, PDT, Block#2, Mean",[3]; [5],14.9
same,"Percent Lumen Compromised by Intimal Hyperplasia, PDT, Block #1, Mean",[3]; [5],16.9%
same,"Percent Lumen Compromised by Intimal Hyperplasia, PDT, Block #2, Mean",[3]; [5],26.9%
same,"Percent Lumen Compromised by Intimal Hyperplasia, Control-PDT, Block #1, Mean",[3]; [6],16.7%
same,"Percent Lumen Compromised by Intimal Hyperplasia, Control-PDT, Block #2, Mean",[3]; [6],8.5%
same,PDT-treated fistula thrombosed (T),[3]; [7],T
same,"Percent Lumen Compromised by Intimal Hyperplasia, Control-PDT, Block #1",[3]; [7],−0.4% and 18.8% and 31.8%
same,"Percent Lumen Compromised by Intimal Hyperplasia, Control-PDT, Block #2",[3]; [7],17.6% and 14.5% and −6.6%
same,"Medial Hyperplasia, PDT, Block#1",[3]; [8],8.4 and 38.1 and 17.3
same,"Medial Hyperplasia, PDT, Block#2",[3]; [8],8.1 and 27.5 and 9.2
same,PDT treated fistulae patent by 3 months,"[3]; 0.15 mg/2 mL BPD-MA, 1 J/cm^2 OR lamp light over 40 min, 11 pigs, control 45%",27%
same,"Relative reduction of intimal hyperplasia, block 1",[3]; [9],46%
same,"Relative reduction of intimal hyperplasia, block 2",[3]; [9],27%
same,PDT effect on the media of the veins,[3]; after 3 months,little PDT effect
same,IH in block of tissue immediately adjacent to the anastamosis,"[3]; three animals with both fistulae patent, three months",marked decrease in IH
